Some test systems named below: NCI-H23 lung; 786-0 renal; PC-3 prostate; K-562 leukemia; NCI-H226 lung; DU-145 prostate; OVCAR-4 ovarian; LOX IMVI melanoma; NCI-H522 lung; UACC-62 melanoma.
What all share (test): NCI-60 cell line screen, 48 h

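Tested at 5 concentrations; 48 h exposure; 96-well plates; endpoints linearly interpolated, else capped at highest concentration. The concentration for 50% growth inhibition is given as GI50. Definition used: TGI = concentration required for complete inhibition of growth.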

Regarding `CCOC(=O)c1c2c(n(C)c1-c1ccccc1)C(=O)C(C)=CC2=O`, the TGI with NCI-H23 lung is 29.7 µM; with 786-0 renal it was 32.1 µM; with PC-3 prostate it was 25.5 µM; in the experiment on K-562 leukemia, above 33.2 µM; with NCI-H226 lung, 24.9 µM; in the experiment with DU-145 prostate it was 35.2 µM. In addition, the TGI worked out at 20.3 µM in the experiment with OVCAR-4 ovarian, 13.2 µM with LOX IMVI melanoma, 5.83 µM in the experiment with NCI-H522 lung and 23.9 µM with UACC-62 melanoma.
For `COc1ccc(/C=N/Nc2[nH]c(=S)nc3[nH]ncc23)cc1`, the TGI with NCI-H23 lung, in the experiment with 786-0 renal, in the experiment on PC-3 prostate, in the experiment with K-562 leukemia, with NCI-H226 lung and with DU-145 prostate was above 100 µM each time. Moreover, the TGI with OVCAR-4 ovarian was above 100 µM; in the experiment with LOX IMVI melanoma, above 100 µM; in the experiment with NCI-H522 lung, 79.9 µM; in the experiment on UACC-62 melanoma, above 100 µM.
As for `COc1ccc(C2CC(c3c(C)nn(-c4ccccc4)c3-c3ccc(C)cc3O)=NN2c2ccccc2)cc1` (stereo unspecified), the TGI in the experiment with NCI-H23 lung was above 30.3 µM; in the experiment with 786-0 renal, above 100 µM; in the experiment on PC-3 prostate it was above 100 µM; with K-562 leukemia it was above 100 µM; in the experiment with NCI-H226 lung, above 100 µM; in the experiment with DU-145 prostate it was above 100 µM. The TGI with OVCAR-4 ovarian, in the experiment on LOX IMVI melanoma, in the experiment on NCI-H522 lung and with UACC-62 melanoma was above 100 µM throughout.
Consider `COc1ccccc1C(=O)c1c(N2CCCCC2)c(=O)c1=O`, for which the TGI in the experiment on NCI-H23 lung, with 786-0 renal, in the experiment on PC-3 prostate, in the experiment on K-562 leukemia, with NCI-H226 lung and with DU-145 prostate was above 100 µM in each case. Besides, the TGI with OVCAR-4 ovarian, with LOX IMVI melanoma, with NCI-H522 lung and with UACC-62 melanoma was above 100 µM each time.
`CN(C)CCCn1c2ccccc2c2cnccc21`: the TGI with NCI-H23 lung was above 100 µM; in the experiment on 786-0 renal, above 100 µM; with PC-3 prostate, above 100 µM; in the experiment on K-562 leukemia it was above 100 µM; with NCI-H226 lung, 59.7 µM; with DU-145 prostate it was above 100 µM. Besides, the TGI is above 100 µM with OVCAR-4 ovarian, 52.6 µM in the experiment with LOX IMVI melanoma, above 100 µM in the experiment on NCI-H522 lung and above 100 µM in the experiment on UACC-62 melanoma.
For the compound `O=[N+]([O-])c1ccc2nc3ccc([N+](=O)[O-])cn3c2c1`, the TGI in the experiment on NCI-H23 lung, with 786-0 renal, with PC-3 prostate, in the experiment on K-562 leukemia, with NCI-H226 lung and in the experiment with DU-145 prostate was above 100 µM each time. Also, the TGI is above 100 µM in the experiment on OVCAR-4 ovarian, above 100 µM in the experiment with LOX IMVI melanoma, 65.5 µM in the experiment with NCI-H522 lung and above 100 µM in the experiment on UACC-62 melanoma.
In the case of `O=C1CCSSCCC(=O)Nc2ccccc2N1`, the TGI in the experiment with NCI-H23 lung, with 786-0 renal, with PC-3 prostate, with K-562 leukemia, in the experiment with NCI-H226 lung and in the experiment with DU-145 prostate was above 100 µM each time. Moreover, the TGI in the experiment with OVCAR-4 ovarian, in the experiment with LOX IMVI melanoma, in the experiment on NCI-H522 lung and in the experiment with UACC-62 melanoma was above 100 µM throughout.
Take `O=C(Nc1cccc2nsnc12)c1cc2c(cc1Cl)Sc1nccn1S2(=O)=O`: the TGI was 25.3 µM in the experiment on NCI-H23 lung; 32 µM in the experiment on 786-0 renal; 3.64 µM in the experiment with PC-3 prostate; above 44.5 µM with K-562 leukemia; 55.4 µM with NCI-H226 lung; 3.17 µM in the experiment on DU-145 prostate. Besides, the TGI in the experiment with OVCAR-4 ovarian was 15.6 µM; in the experiment on LOX IMVI melanoma it was above 63.8 µM; in the experiment with NCI-H522 lung, 32.3 µM; in the experiment on UACC-62 melanoma, 17.6 µM. For the same compound, the GI50 in the experiment with DU-145 prostate was 1.74 µM.
As for `CCOC(=O)C1C/C(C)=C(/C)SCCCS1` (stereo unspecified), the TGI in the experiment with NCI-H23 lung, in the experiment with 786-0 renal, in the experiment on PC-3 prostate, in the experiment on K-562 leukemia, in the experiment on NCI-H226 lung and in the experiment with DU-145 prostate was above 100 µM throughout. Besides, the TGI with OVCAR-4 ovarian was above 100 µM; in the experiment with LOX IMVI melanoma, above 100 µM; in the experiment on NCI-H522 lung it was 41.5 µM; in the experiment on UACC-62 melanoma, above 100 µM.
As to `CC(C)=CC(=O)O[C@@H]1CC(C)(C)CC2C3=CCC4[C@]56CC[C@](O)(OC5)C(C)(C)C6CC[C@@]4(C)C3(C)CC[C@]21C(=O)O` (stereo partly specified), the TGI is 89.4 µM with NCI-H23 lung; above 100 µM in the experiment on 786-0 renal; above 100 µM with PC-3 prostate; above 100 µM in the experiment with K-562 leukemia; above 100 µM in the experiment on NCI-H226 lung; above 100 µM with DU-145 prostate. The TGI with OVCAR-4 ovarian is above 100 µM; in the experiment with LOX IMVI melanoma it was 44.4 µM; in the experiment on NCI-H522 lung, above 100 µM; in the experiment on UACC-62 melanoma it was above 100 µM.
In the case of `COc1cc(S(=O)(=O)Nc2nc(-c3ccc(N4C(=O)/C(=C/c5ccccc5)N=C4c4ccccc4)cc3)cs2)ccc1Cl`, the TGI was 80.4 µM with NCI-H23 lung; above 100 µM in the experiment on 786-0 renal; above 100 µM with PC-3 prostate; above 100 µM in the experiment with K-562 leukemia; above 100 µM in the experiment on NCI-H226 lung; above 100 µM in the experiment on DU-145 prostate. The TGI was above 100 µM with OVCAR-4 ovarian, above 100 µM in the experiment on LOX IMVI melanoma, above 100 µM in the experiment on NCI-H522 lung and 50.8 µM in the experiment with UACC-62 melanoma.
On to `CC(=O)N[C@@H](Cc1ccc(O)cn1)C(=O)NCc1ccc2c(c1)OCO2`, for which the TGI with NCI-H23 lung, in the experiment with 786-0 renal, with PC-3 prostate, in the experiment with K-562 leukemia, in the experiment on NCI-H226 lung and in the experiment on DU-145 prostate was above 100 µM throughout. For the same compound, the TGI with OVCAR-4 ovarian, in the experiment with LOX IMVI melanoma, with NCI-H522 lung and in the experiment with UACC-62 melanoma was above 100 µM each time.
`O=C(Cn1c2ccc(Br)cc2c2nc3ccccc3nc21)NC1CCCCC1`: the TGI with NCI-H23 lung, in the experiment on 786-0 renal, in the experiment with PC-3 prostate, in the experiment with K-562 leukemia, in the experiment with NCI-H226 lung and in the experiment on DU-145 prostate was above 100 µM in each case. In addition, the TGI in the experiment on OVCAR-4 ovarian, with LOX IMVI melanoma, in the experiment with NCI-H522 lung and with UACC-62 melanoma was above 100 µM each time.

The record behind these values is PubChem BioAssay (NCI).
